Test results: patent US20130344595A1, “CULTURE MEDIA FOR DEVELOPMENTAL CELLS CONTAINING ELEVATED CONCENTRATIONS OF LIPOIC ACID” (Vitrolife Sweden AB, priority 2007, published 2013)
Marks after values point to notes of the source that are not given here.

Experiments:
CF1 mouse embryos [1] = assay: Sequential G1/G2 culture of mouse embryos, G1 with or without 10 μM lipoic acid (Example 2); assay type: cell-based; conditions: low O2
Experimental: CF1 mouse embryos were grown in either G1 alone or G1 plus 10 μM lipoic acid. After 48 hours, embryos from both treatment groups were moved to G2. All cultures were incubated in low O2. Compaction rates were assessed and blastocyst developmental rates were measured at 71 and 78 hours. Blastocysts were then differentially stained and counted.

rabbit morulae = conditions: omission from Ham's F10 medium; cited from earlier work
8-cell hamster embryos = conditions: omission from Ham's F10 medium; cited from earlier work
human embryos = assay: Human embryo development in G1 medium with 10 μM lipoic acid (Example 5); assay type: cell-based; conditions: G1 medium with 10 μM lipoic acid versus G1 free of lipoic acid
Experimental: In accordance with the present invention, the effect of lipoic acid-containing culture media on human embryo development is examined. Good prognosis patients have half of their embryos cultured in G1 culture media free of lipoic acid (i.e., the control), while the other half are cultured in G1 medium containing 10 μM lipoic acid (i.e., the elevated lipoic acid medium).

[2] = system: reactive oxygen species (ROS); assay: ROS generation in culture medium by UV photo-oxidation, H2DFFDA fluorescent dye (Example 4); conditions: all concentrations; compared to vehicle group; UV photo-oxidation in GMOPS-Plus
Experimental: In order to determine whether the lipoic acid is having an antioxidant effect, a series of experiments were performed using the fluorescent dye […] (H2DFFDA), which reacts with reactive oxygen species (ROS) intermediates. 200 μM H2DFFDA in DMSO was added to GMOPS-Plus (available from Vitrolife). Lipoic acid dissolved in EtOH with the final concentration within the media being 0.1% EtOH. Each drop was then photo-oxidized with 4 successive 2.5 minute exposures using UV light to generate ROS.
All results are based on comparison to the vehicle group ([…]), which was not significant in comparison to the control group.

CF1 mouse embryos [3] = assay: Blastocyst development and cell number of mouse embryos cultured with lipoic acid at 20% or 5% O2 (Example 1); assay type: cell-based
Experimental: The following procedure was carried out. Lipoic acid was dissolved in ethanol. A 100 mM working solution in 100% EtOH was prepared with appropriate dilutions made to the culture media thereafter (1 μM, 10 μM and 100 μM final concentrations). A vehicle control, equivalent to the dilution of the highest concentration solution (0.1%), was used in all culture experiments. Zygotes were collected from 4-week-old CF1 outbred female mice. Cumulus-enclosed zygotes were collected at 21 h post hCG and denuded with 1 mg/mL hyaluronidase in G-MOPS supplemented with 5 mg/mL human serum albumin. Cultures were incubated at either 5% or 20% O2. After four days of culture, blastocyst development was analyzed and cell number was counted in 200 cultured embryos per treatment.
The results are shown in FIGS. 1 (20% O2) and 2 (5% O2). The data are based on 200 embryos cultured per study. […] Furthermore, the beneficial effect of lipoic acid was lost at higher concentrations. […] The data for FIGS. 1 and 2 are presented in Tables 6 and 7, respectively, which also provide the results for the trophectoderm, inner cell mass (ICM) and ICM ratio.

CF1 mouse zygote = assay: Effective concentration range of lipoic acid on mouse zygote development at 20% oxygen (Example 3); assay type: cell-based; conditions: for Day 3 (% compacting) / Day 4 (% Total Blast) / Day 5 (% Hatching) / Day 5 (% Total Blast) / Total Cell Number: 20% oxygen
From the text: The effective range of lipoic acid concentrations to enhance blastocyst development and cell number was established using CF1 mouse embryos.

[4] = G1 + 10 μM LA for 48 hours, then G2

## O=C(O)CCCC[C@@H]1CCSS1 (racemic) [lipoic acid]
CF1 mouse embryos [1]; 10 μM lipoic acid added to G1
  inner cell mass number and percentage inner cell mass of total: increased inner cell mass number and percentage inner cell mass of total
CF1 mouse embryos [1]; [4]
  % Expanded on Day 4: 39.7%
  % ICM: 31%**
  Day 3 % a.m.: 81.0%
  Day 4 blast % a.m.: 22.4%
  Day 4 blast % p.m.: 65.5%
  ICM: 16 ± 1
  TE: 34 ± 2
  Total: 50 ± 2
Rabbit morulae
  effect of omission of lipoic acid on culture of rabbit morulae to expanded blastocysts: no significant effect
8-cell hamster embryos
  effect of omission of lipoic acid on development of 8-cell hamster embryos: no significant effect on the development at any stage of culture
Human embryos
  human embryo development up to the 8-cell and blastocyst stage: Embryos develop quicker up to the 8-cell and blastocyst stage
[2]
  generation of ROS within the culture media: concentration-dependent decrease in the generation of reactive oxygen
CF1 mouse embryos [3]; 1 μM lipoic acid, at either 5% or 20% oxygen
  blastocyst cell number: no statistically significant increase in cell number
CF1 mouse embryos [3]; 10 μM lipoic acid, outbred (CF1) mouse embryos
  blastocyst cell number: significantly higher cell number
CF1 mouse embryos [3]; 100 μM lipoic acid
  blastocyst cell number versus control medium: significantly lower cell numbers
CF1 mouse embryos [3]; lipoic acid 1 μM, 5% O2
  Day 5 % Blast: 76.15%
  ICM: 16.83
  ICM ratio: 19.71%
  total cell #: 85.40
  trophectoderm: 68.57
CF1 mouse embryos [3]; lipoic acid 1 μM, 20% O2
  Day 5 % Blast: 59.18%
  ICM: 13.07
  ICM ratio: 19.12%
  total cell #: 68.37
  trophectoderm: 55.30
CF1 mouse embryos [3]; lipoic acid 10 μM, 5% O2
  Day 5 % Blast: 76.74%^#
  ICM: 22.49^####
  ICM ratio: 22.10%
  total cell #: 101.77^###
  trophectoderm: 79.28^##
CF1 mouse embryos [3]; lipoic acid 10 μM, 20% O2
  Day 5 % Blast: 61.47%^‡
  ICM: 16.4731^‡‡‡‡
  ICM ratio: 21.25%
  total cell #: 77.527^‡‡‡
  trophectoderm: 61.054^‡‡
CF1 mouse embryos [3]; lipoic acid 100 μM, 5% O2
  Day 5 % Blast: 53.13%
  ICM: 13.61
  ICM ratio: 18.33%
  total cell #: 74.21
  trophectoderm: 60.61
CF1 mouse embryos [3]; lipoic acid 100 μM, 20% O2
  Day 5 % Blast: 42.57%
  ICM: 10.2916
  ICM ratio: 19.07%
  total cell #: 53.9583
  trophectoderm: 43.6667
CF1 mouse zygote; 5 μM LA
  Day 3 (% compacting): 38.9%
  Day 4 (% Total Blast): 51.6%
  Day 5 (% Hatching): 40.9%
  Day 5 (% Total Blast): 81.8%
  Total Cell Number: 90.2 ± 4.8
CF1 mouse zygote; 10 μM LA
  Day 3 (% compacting): 51.4%
  Day 4 (% Total Blast): 62.9%
  Day 5 (% Hatching): 40.0%
  Day 5 (% Total Blast): 92.7%
  Total Cell Number: 91.3 ± 4.7
CF1 mouse zygote; 20 μM LA
  Day 3 (% compacting): 26.5%
  Day 4 (% Total Blast): 42.9%
  Day 5 (% Hatching): 31.3%
  Day 5 (% Total Blast): 73.1%
  Total Cell Number: 94.0 ± 7.2
CF1 mouse zygote; 40 μM LA
  Day 3 (% compacting): 22.9%
  Day 4 (% Total Blast): 37.3%
  Day 5 (% Hatching): 28.4%
  Day 5 (% Total Blast): 74.6%
  Total Cell Number: 69.4 ± 5.8
CF1 mouse zygote; 80 μM LA
  Day 3 (% compacting): 22.9%
  Day 4 (% Total Blast): 4.6%
  Day 5 (% Hatching): 9.4%
  Day 5 (% Total Blast): 29.7%
  Total Cell Number: 34.0
CF1 mouse zygote; above 5 to 40 μM
  blastocyst development by day 5 and cell number relative to the control: lower blastocyst development by day 5 and lower cell number relative to the control
CF1 mouse zygote; lipoic acid at less than 5 μM
  effect on progression to blastocyst stage, blastocyst cell number and inner cell mass: little, if any, effect
CF1 mouse zygote; lipoic acid greater than about 40 μM
  day 4 blastocyst development and cell numbers: lower day 4 blastocyst development and decreased cell numbers
CF1 mouse zygote; within the range 5 μM to 40 μM
  concentration of maximum improvement to embryo development: approximately 10 μM
